In ChEMBL document CHEMBL1138655, “Synthesis and biological studies of 1-amino beta-carbolines” (Bioorg Med Chem Lett, 2004) one finds IC50 and GI50 data, which are given here for twelve molecules.

In brackets after ≈: the same amount, converted by molar mass.

One assay concerns Leishmania donovani. As to the kind of experiment: inhibitory concentration against Leishmania donovani was determined. The assay is classed as functional, organism-based.
In a further assay the test system is Trypanosoma cruzi. As to the kind of experiment: inhibitory concentration against Trypanosoma cruzi was determined. The assay is classed as functional, organism-based.
A further assay deals with Plasmodium falciparum. As to the kind of experiment: Inhibitory concentration for Plasmodium falciparum. The format is functional, organism-based.
Assay [1] concerns Trypanosoma brucei rhodesiense. As to the kind of experiment: inhibitory concentration against Trypanosoma brucei rhodesiense determined. The format is functional, organism-based.
Another assay relates to MDA-MB-231. The assay can be described thus: Concentration required for 50% growth inhibition against human breast MDA-MB-231/ATCC cell lines. The assay is classed as functional.
The subject of another assay is M14. As to the kind of experiment: Concentration required for 50% growth inhibition against human melanoma M14 cell lines. The format is functional.
The test system of a further assay is UACC-62. The assay can be described thus: Concentration required for 50% growth inhibition against human melanoma UACC-62 cell lines. The assay is classed as functional.
The subject of the next assay is HT-29. As to the kind of experiment: Concentration required for 50% growth inhibition against human colon HT-29 cell lines. The assay is classed as functional.
For another assay, the system named is OVCAR-3. As to the kind of experiment: Concentration required for 50% growth inhibition against human ovarian OVCAR-3 cell lines. The format is functional.
The subject of another assay is HOP-92. The assay can be described thus: Concentration required for 50% growth inhibition against human non small cell lung cancer HOP-92. The assay is classed as functional.
For the next assay, the system named is K562. As to the kind of experiment: Concentration required for 50% growth inhibition against human leukemia K-562 cell lines. The format is functional.

With `CCN(CC)N1CCN(c2[nH]ccc3c4ccccc4nc2-3)CC1`, the IC50 (in general, the concentration needed to halve the response being measured) in the assay with Leishmania donovani is above 90 µg/mL; with Trypanosoma cruzi, 5.8 µg/mL (≈ 17.9 µM); in the assay on Plasmodium falciparum, 0.41 µg/mL (≈ 1.27 µM); in assay [1] it was 0.63 µg/mL (≈ 1.95 µM).

As to `OCCNc1[nH]ccc2c3ccccc3nc1-2`, the half-inhibitory concentration (IC50) was above 90 µg/mL in the assay with Leishmania donovani, 4.25 µg/mL (≈ 18.7 µM) with Trypanosoma cruzi, 2.4 µg/mL (≈ 10.6 µM) in the assay on Plasmodium falciparum and 1.8 µg/mL (≈ 7.92 µM) in assay [1].

`OC1CCCN(c2[nH]ccc3c4ccccc4nc2-3)C1` (configuration not stated): the half-maximal inhibitory concentration (IC50) in the assay with Leishmania donovani was above 90 µg/mL; in the assay on Trypanosoma cruzi it was 19.3 µg/mL (≈ 72.4 µM); in the assay on Plasmodium falciparum it was 3.4 µg/mL (≈ 12.7 µM); in assay [1], 8.9 µg/mL (≈ 33.3 µM).

Regarding `c1ccc2c3cc[nH]c(N4CCN(N5CCCC5)CC4)c-3nc2c1`, the IC50 in the assay on Leishmania donovani is above 90 µg/mL; with Trypanosoma cruzi it was 6.1 µg/mL (≈ 19 µM); with Plasmodium falciparum, 0.45 µg/mL (≈ 1.4 µM); in [1], 0.52 µg/mL (≈ 1.62 µM).

As to `c1ccc2c3cc[nH]c(N4CCN(N5CCCCC5)CC4)c-3nc2c1`, the IC50 with Leishmania donovani was above 90 µg/mL; in the assay on Trypanosoma cruzi it was 2.35 µg/mL (≈ 7.01 µM); in the assay on Plasmodium falciparum, 0.39 µg/mL (≈ 1.16 µM); in assay [1], 1.8 µg/mL (≈ 5.37 µM).

In the case of `c1ccc2c3cc[nH]c(N4CCN(N5CCCCCC5)CC4)c-3nc2c1`, the IC50 with Leishmania donovani was above 90 µg/mL; in the assay with Trypanosoma cruzi it was 6.5 µg/mL (≈ 18.6 µM); in the assay on Plasmodium falciparum, 0.35 µg/mL (≈ 1 µM); in assay [1] it was 0.61 µg/mL (≈ 1.75 µM).

Regarding `CN(C)CCCNc1nccc2c1[nH]c1ccccc12`, the half-inhibitory concentration (IC50) with Leishmania donovani was above 90 µg/mL; with Trypanosoma cruzi, 4.2 µg/mL (≈ 15.7 µM); with Plasmodium falciparum it was 0.45 µg/mL (≈ 1.68 µM); in [1], 28.1 µg/mL (≈ 105 µM).

For `CCN(CC)CCCNc1nccc2c1[nH]c1ccccc12`, the concentration for 50% growth inhibition (GI50) (commonly the concentration that inhibits growth by half) stood at 5.2 µM with MDA-MB-231; 2 µM in the assay on M14; 2.3 µM in the assay with UACC-62; 2.7 µM in the assay on HT-29; 1.6 µM in the assay on OVCAR-3; 0.38 µM in the assay on HOP-92. For the same molecule, in the assay on K562, the GI50 turned out to be 3.2 µM. Besides, the IC50 is above 90 µg/mL in the assay with Leishmania donovani, 1.62 µg/mL (≈ 5.47 µM) in the assay with Trypanosoma cruzi, 0.64 µg/mL (≈ 2.16 µM) in the assay on Plasmodium falciparum and 0.18 µg/mL (≈ 0.607 µM) in assay [1].

`c1ccc2c(c1)[nH]c1c(N3CCOCC3)nccc12`: the IC50 in the assay on Leishmania donovani is above 90 µg/mL; with Trypanosoma cruzi it was 25.1 µg/mL (≈ 99.1 µM); in the assay with Plasmodium falciparum, 4.59 µg/mL (≈ 18.1 µM); in assay [1] it was 18.2 µg/mL (≈ 71.9 µM).

With `c1ccc2c(c1)[nH]c1c(N3CCCCC3)nccc12`, the IC50 was above 90 µg/mL in the assay on Leishmania donovani, above 30 µg/mL in the assay with Trypanosoma cruzi, 1.2 µg/mL (≈ 4.77 µM) in the assay on Plasmodium falciparum and 0.13 µg/mL (≈ 0.517 µM) in [1].

Consider `CCN(CC)CCCC(C)Nc1nccc2c1[nH]c1ccccc12` (configuration not stated), for which the GI50 with M14 was found to be 16.4 µM; in the assay with UACC-62, 24 µM; in the assay with HT-29, 22.9 µM; with OVCAR-3 it was 22.8 µM; in the assay on HOP-92 it was 4.5 µM; with K562 it was 12.2 µM. For the same molecule, the half-maximal inhibitory concentration (IC50) in the assay on Leishmania donovani was above 90 µg/mL; with Trypanosoma cruzi, 3 µg/mL (≈ 9.25 µM); in the assay on Plasmodium falciparum it was 0.42 µg/mL (≈ 1.29 µM); in assay [1], 0.13 µg/mL (≈ 0.401 µM).

Take `CN1CCN(c2nccc3c2[nH]c2ccccc23)CC1`: the 50% growth inhibitory concentration (GI50) was 3.9 µM in the assay with MDA-MB-231; 14.9 µM with M14; 17.8 µM with UACC-62; 19.9 µM in the assay on OVCAR-3; 18.6 µM with HOP-92; 22.5 µM in the assay with K562. In addition, the 50% inhibitory concentration (IC50) is above 90 µg/mL in the assay with Leishmania donovani, 4.3 µg/mL (≈ 16.1 µM) with Trypanosoma cruzi, 0.62 µg/mL (≈ 2.33 µM) in the assay on Plasmodium falciparum and 0.63 µg/mL (≈ 2.37 µM) in assay [1].
